Drawing on BindingDB's records for doi:10.1021/jm00069a017 (University of Minnesota, 1993), this text covers Ki for 1 compound.

Test [1] is described as follows: Selective binding affinity against Opioid receptor delta 2, using [3H]DSLET as radioligand.
A short description of test [2]: Selective binding affinity against Opioid receptor delta 1, using [3H]DPDPE as radioligand.

Structures are written as SMILES.

In general, Ki refers to the equilibrium dissociation constant of an inhibitor or competing ligand from its target. The low end stands for a stronger hold on the target, the high end for a looser hold on the target. Take `CN1CC[C@]23c4c5ccc(O)c4O[C@H]2C(=O)C2(Cc4ccccc4C2)C[C@@]3(O)[C@H]1C5` [Spiroindanyloxymorphone]: the Ki in test [1] came out at 3.3 nM; in test [2] it was 1.4 nM.
